Reference: patent publication US7148236B2, “Modulators of acetylcholine receptors” (Merck & Co., Inc., priority 2002, dated 2006)

SMILES	melting point
CN1[C@@H]2CC[C@H]1C[C@H](Sc1ccc3[nH]c(=O)[nH]c(=O)c3c1)C2	> 260 °C
CCCn1c(=S)[nH]c2ccc(S[C@@H]3C[C@H]4CC[C@@H](C3)N4C)c(Cl)c21	131.4 to 133.9 °C
CC(C)n1c(=S)[nH]c2ccc(S[C@@H]3C[C@H]4CC[C@@H](C3)N4C)c(Cl)c21	228.9 to 230.9 °C
CN1[C@@H]2CC[C@H]1C[C@H](Sc1ccc3[nH]c(=O)n(C)c3c1Cl)C2.Cl	> 260 °C

The remaining lines, values ahead:

melting point	SMILES
178.5 to 181.6 °C	CN1[C@@H]2CC[C@H]1C[C@H](Sc1ccc3[nH]c(=O)[nH]c3c1)C2
206.4 to 207.2 °C	CN1[C@@H]2CC[C@H]1C[C@H](Sc1cc3c(cc1Cl)[nH]c(=O)n3C)C2
